Active and inactive are the calls of the source. The calls are words filed in the database; no cut-off is given here.
Legend:
MG-63 [1] = test: Antitumor activity against human MG-63 cells xenografted in female BALB/c mouse model assessed as nucleocytoplasmic separation in tumor tissue treated via oral gavage administered once a day for 3 weeks by HE staining analysis; format: functional, cell-based; settings: dose 10-60 mg/kg
U2OS [2] = test: Induction of apoptosis in human U2OS cells assessed as viable cells at 2 uM measured after 48 hrs annexin-V and propidium iodide staining based flow cytometry analysis (reference value: 89.2%); format: functional; settings: read-out: Activity
MG-63 [3] = test: Antitumor activity against human MG-63 cells xenografted in female BALB/c mouse model assessed as upregulation of gamma-H2AX in tumor treated via oral gavage administered once a day for 3 weeks by IHC analysis; format: functional, cell-based; settings: dose 10-60 mg/kg
U2OS [4] = test: Induction of DNA damage in human U2OS cells assessed as increase in telomere dysfunction-foci at 4 uM by Immunofluorescence based FISH assay; format: functional, cell-based
U2OS [5] = test: Induction of apoptosis in human U2OS cells assessed as reduction in TRF2 foci at 2 to 4 microM by Immunofluorescence based FISH assay; format: functional, cell-based; settings: dose 2-4 µM
[6] = Acute toxicity in mouse assessed as alanine aminotransferase level (ALT) level in serum at 30 to 90 mg/kg, po single dose measured for 7 days; format: organism-based; settings: in vivo, 168 h, dose 30-90 mg/kg, time 7 day
MG-63 [7] = test: Antitumor activity against human MG-63 cells xenografted in female BALB/c mouse model assessed as tumour growth suppression at 10 to 60 mg/kg, via oral gavage administered once a day for 3 weeks; format: functional, organism-based; settings: dose 10-60 mg/kg
MG-63 [8] = test: Induction of apoptosis in human MG-63 cells assessed as reduction in TRF2 foci at 2 to 4 microM by Immunofluorescence based FISH assay; format: functional, cell-based; settings: dose 2-4 µM
U2OS [9] = test: Antiproliferative activity against human U2OS cells assessed as reduction in cell viability incubated for 48 hrs by MTT assay; format: functional, cell-based
U2OS [10] = test: Induction of apoptosis in human U2OS cells assessed as necrotic cells at 4 uM measured after 48 hrs annexin-V and propidium iodide staining based flow cytometry analysis (reference value: 2.46%); format: functional
MG-63 [11] = test: Inhibition of TRF2 expression in human MG-63 cells by co-immunoprecipitation based Western blot analysis; format: functional, cell-based
MG-63 [12] = test: Induction of apoptosis in human MG-63 cells assessed as viable cells at 4 uM measured after 48 hrs annexin-V and propidium iodide staining based flow cytometry analysis (reference value: 90.7%); format: functional; settings: read-out: Activity
[13] = Inhibition of TRF2 expression in human MG-63 cells at 2 uM measured after 48 hrs by Western blot analysis relative to control; format: functional
[14] = Acute toxicity in mouse assessed as change in weight of spleen at 30 to 90 mg/kg, po single dose measured for 7 days; format: organism-based; settings: in vivo, 168 h, dose 30-90 mg/kg, time 7 day
MG-63 [15] = test: Antiproliferative activity against human MG-63 cells assessed as reduction in cell viability incubated for 48 hrs by MTT assay; format: functional, cell-based; settings: MG-63, 48 h
MG-63 [16] = test: Induction of apoptosis in human MG-63 cells assessed as early apoptotic cells at 2 uM measured after 48 hrs annexin-V and propidium iodide staining based flow cytometry analysis (reference value: 0.66%); format: functional
MG-63 [17] = test: Induction of DNA damage in human MG-63 cells assessed as increase in telomere dysfunction-foci at 4 uM by Immunofluorescence based FISH assay; format: functional, cell-based
U2OS [18] = test: Induction of apoptosis in human U2OS cells assessed as early apoptotic cells at 2 uM measured after 48 hrs annexin-V and propidium iodide staining based flow cytometry analysis (reference value: 2.38%); format: functional
U2OS [19] = test: Induction of DNA damage in human U2OS cells assessed as upregulation of gamma-H2AX level by Immunofluorescence based FISH assay; format: functional, cell-based; settings: dose 2-4 µM
MG-63 [20] = test: Antitumor activity against human MG-63 cells xenografted in female BALB/c mouse model assessed as downregulation of TRF2 in tumor treated via oral gavage administered once a day for 3 weeks by IHC analysis; format: functional, cell-based; settings: dose 10-60 mg/kg
[21] = Acute toxicity in mouse assessed as creatinine (Cr) level in serum at 30 to 90 mg/kg, po single dose measured for 7 days; format: organism-based; settings: in vivo, 168 h, dose 30-90 mg/kg, time 7 day
[22] = Acute toxicity in mouse assessed as change in weight of lung at 30 to 90 mg/kg, po single dose measured for 7 days; format: organism-based; settings: in vivo, 168 h, dose 30-90 mg/kg, time 7 day
U2OS [23] = test: Induction of DNA damage response in human U2OS cells assessed as reduction in TRF2 expression by measuring accumulation of telomere-free ends at 2 to 4 uM by FITC/DAPI based Quantitative FISH (Q-FISH) assay; format: functional, cell-based; settings: dose 2-4 µM
MG-63 [24] = test: Induction of apoptosis in human MG-63 cells assessed as late apoptotic cells at 4 uM measured after 48 hrs annexin-V and propidium iodide staining based flow cytometry analysis (reference value: 7.71%); format: functional
[25] = Toxicity in female BALB/c mouse model xenografted with human MG-63 cells assessed as effect on body weight at 10 to 60 mg/kg, via oral gavage administered once a day for 3 weeks; format: organism-based; settings: in vivo, 504 h, dose 10-60 mg/kg
U2OS [26] = test: Induction of apoptosis in human U2OS cells assessed as reduction in colocalization of TRF2 with telomere at 2 to 4 microM by Immunofluorescence based FISH assay; format: functional, cell-based; settings: dose 2-4 µM
U2OS [27] = test: Induction of apoptosis in human U2OS cells assessed as early apoptotic cells at 4 uM measured after 48 hrs annexin-V and propidium iodide staining based flow cytometry analysis (reference value: 2.38%); format: functional
MG-63 [28] = test: Induction of DNA damage in human MG-63 cells assessed as upregulation of gamma-H2AX level by Immunofluorescence based FISH assay; format: functional, cell-based; settings: dose 2-4 µM
[29] = Acute toxicity in mouse assessed as change in weight of heart at 30 to 90 mg/kg, po single dose measured for 7 days; format: organism-based; settings: in vivo, 168 h, dose 30-90 mg/kg, time 7 day
[30] = Acute toxicity in mouse assessed as change in weight of liver at 30 to 90 mg/kg, po single dose measured for 7 days; format: organism-based; settings: in vivo, 168 h, dose 30-90 mg/kg, time 7 day
MG-63 [31] = test: Antitumor activity against human MG-63 cells xenografted in female BALB/c mouse model assessed as incomplete nuclei appearance in tumor tissue treated via oral gavage administered once a day for 3 weeks by HE staining analysis; format: functional, cell-based; settings: dose 10-60 mg/kg
[32] = Cytotoxicity against […] MLO-Y4 cells assessed as cell viability incubated for 48 hrs by MTT assay; format: toxicity, cell-based; settings: mouse
MG-63 [33] = test: Induction of apoptosis in human MG-63 cells assessed as necrotic cells at 2 uM measured after 48 hrs annexin-V and propidium iodide staining based flow cytometry analysis (reference value: 0.52%); format: functional
U2OS [34] = test: Induction of DNA damage response in human U2OS cells assessed as telomere dysfunction by measuring telomere length shortening at 2 to 4 uM by Immunofluorescence based FISH assay; format: functional, cell-based; settings: dose 2-4 µM
U2OS [35] = test: Induction of DNA damage in human U2OS cells assessed as increase in 53BP1 foci by Immunofluorescence based FISH assay; format: functional, cell-based; settings: dose 2-4 µM
MG-63 [36] = test: Antitumor activity against human MG-63 cells xenografted in female BALB/c mouse model assessed as reduction in Ki67 level in tumor treated via oral gavage administered once a day for 3 weeks by IHC analysis; format: functional, cell-based; settings: dose 10-60 mg/kg
MG-63 [37] = test: Induction of DNA damage response in human MG-63 cells assessed as reduction in TRF2 expression by measuring accumulation of telomere-free ends at 2 to 4 uM by FITC/DAPI based Quantitative FISH (Q-FISH) assay; format: functional, cell-based; settings: dose 2-4 µM

Question: Which results are given for COc1cc(OC)c(C(=O)/C=C/c2cccc(Br)c2)c(OC)c1?
Answer: Activity (MG-63 [1]): Dose-dependent-effect; Significant Than Control; viability at 2 µM (U2OS [2]): 67.7%; Activity (MG-63 [3]): Dose-dependent-effect; Compound Showed Significantly Stronger Effect Than Ar And Fkb04; Activity (U2OS [4]): Active; Activity (U2OS [5]): Active; Activity [6]: Non-toxic; Activity (MG-63 [7]): Active; Stronger Than Control Drugs; Activity (MG-63 [8]): Active; IC50 (U2OS [9]): 5.28 µM; Activity (U2OS [10]): 0.523%; inhibition (MG-63 [11]): Active; viability at 4 µM (MG-63 [12]): 17.5%; inhibition at 2 µM [13]: 54%; Activity [14]: Non-toxic; IC50 (MG-63 [15]): 1.52 µM; Activity (MG-63 [16]): 11.2%; Activity (MG-63 [17]): Active; Activity (U2OS [18]): 12.9%; Activity (U2OS [19]): Dose-dependent-effect; Activity (MG-63 [20]): Dose-dependent-effect; Activity [21]: Non-toxic; Activity [22]: Non-toxic; Activity (U2OS [23]): Active; Activity (MG-63 [24]): 61.9%; Activity [25]: Non-toxic; Activity (U2OS [26]): Active; Activity (U2OS [27]): 31%; Activity (MG-63 [28]): Dose-dependent-effect; Activity [29]: Non-toxic; Activity [30]: Non-toxic; Activity (MG-63 [31]): Dose-dependent-effect; IC50 at 48 h [32]: 12.3 µM; Activity (MG-63 [33]): 2.69%; Activity (U2OS [34]): Dose-dependent-effect; Activity (U2OS [35]): Dose-dependent-effect; Activity (MG-63 [36]): Dose-dependent-effect; Compound Showed Significantly Stronger Effect Than Ar And Fkb04; Activity (MG-63 [37]): Active
